Measurements taken from paper PMC11986105, “Antibacterial macrocyclic peptides reveal a distinct mode of BamA inhibition” (Nature Communications, 2025).
≈ marks a conversion by molar mass, not a printed value. Read-outs that look alike come from different tables or passages of the source. Bridge positions count the residues as written; N and C are the ends. Square brackets hold non-standard residues; d marks the D form. Peptide text beside a SMILES is read from it. Gly(NCH2CH2Ph) = O=C(O)CNCCc1ccccc1; NMeF = CN[C@@H](Cc1ccccc1)C(=O)O; Tic = O=C(O)[C@@H]1Cc2ccccc2CN1

Key:
[1] = system: EspP(G1123R) assembly in AD202 (bamA+); parameters: method as in PMID 36165532; conditions: cited from earlier work
[2] = system: AD202 transformed with pJH224; conditions: 2.5 mM EDTA or peptide at 2x MIC, 5 or 15 min
Experimental: Overnight cultures of AD202 transformed with pJH224 were grown at 37 °C in M9/ampicillin, washed, and added to 55 ml of fresh medium at OD550 = 0.02. When cultures reached OD550 = 0.2, 10 μM IPTG was added and cultures were incubated at 37 °C for an additional 15 min. Cultures were then divided into five 10 ml aliquots and placed into 15 ml tubes. Cells were pelleted in 15 ml tubes (3000 x g, 15 min, room temperature), resuspended in 1 ml pre-warmed M9 and transferred to 50 ml tubes. […] Cells were then placed into 1.7 ml tubes on ice for 5 min and centrifuged (2900 x g, 6 min, 4 °C). The cell pellet was discarded and the supernatant was centrifuged in a TLA.2 rotor in a Beckman Optima MAX-TL ultracentrifuge (100,000 x g, 30 min, 4 °C). Once again the pellet was discarded, and 5 mL 4x LDS sample buffer was then added to 20 mL of each supernatant (which represents the culture medium of ~0.05 OD equivalents), and molecules located in the culture medium were resolved by SDS-PAGE on 12% Novex Tris-Bis minigels (ThermoFisher) using MES running buffer. LPS was visualized using the Molecular Probes Pro-Q Emerald 300 Lipopolysaccharide Gel Stain Kit (ThermoFisher) following the manufacturer’s instructions.

[3] = system: EspP(G1123R) assembly in AD202 (bamA+); experiment: Pulse-chase assembly of slow mutant EspP(G1123R) in AD202; type: cell-based, Escherichia coli; conditions: for effect on EspP(G1123R) assembly when added after the mutant binds to BAM: added 2 min after the start of the chase, peptides 2x MIC, EDTA 2.5 mM, sorbitol 0.8 M
Experimental: AD202 (MC4100 ompT::kan) transformed with pJH224 [Ptrc-espP(G1123R)] were grown to log phase in M9, the expression of espP(G1123R) was induced by adding 10 µM IPTG, and cells were subjected to pulse-chase labeling. […] Immunoprecipitations were performed using an anti-EspP C-terminal peptide antiserum and proteins were resolved by SDS-PAGE. Representative experiments are shown (left), and the completion of EspP(G1123R) assembly was quantitated by calculating the percent of radiolabeled proEspP(G1123R) that underwent autocatalytic cleavage in untreated cells (control) or cells treated with the indicated peptide 2 min after the start of the chase (red arrows) in three biologically independent experiments (right). […] The data are presented as mean values and error bars represent the SEM. In C 2.5 mM EDTA was added 2 min post-chase, and in E cells were harvested and resuspended in M9 (control) or M9 containing 0.8 M sorbitol 2 min post-chase. A representative experiment is shown (left), and the assembly of EspP(G1123R) in cells treated with EDTA or sorbitol or untreated (control) in three biologically independent experiments was quantitated as in B (right).
To analyze the assembly of OMPs in living cells, overnight cultures of HDB164 (MC4100 ara^R bamA101 ompT::spc) transformed with pJH110 (Ptrc-espPΔ5)[65] or AD202 transformed with pRSL5 (Ptrc-espP)[77] or pJH224 [Ptrc-espP (G1123R)][67] were grown in M9 supplemented with 100 μg/mL ampicillin (M9/ampicillin) at 37 °C. The overnight cultures were washed in M9 and added to 50 ml fresh M9/ampicillin at OD550 = 0.02. When the cultures reached OD550 = 0.2, IPTG (10 μM) was added and the cells were incubated for another 30 min at 37 °C before being subjected to pulse-chase labeling as previously described[66]. At each timepoint 1 ml aliquots were removed and proteins were precipitated by adding 10% (v/v) TCA. […] As a control, an equal amount of DMSO was added. In some experiments, 2.5 mM EDTA, pH 8 was added instead of a cyclic peptide. […]

[4] = system: E. coli BamA101 (JCM972, MC4100 bamA101); type: cell-based, Escherichia coli; conditions: in solution, CAMHB broth microdilution
Experimental: (§1) The MICs of the cyclic peptides obtained in the mRNA display screens against E. coli strains JCM158 and JCM972 were measured using broth microdilution in cation-adjusted Mueller−Hinton broth (CAMHB), as recommended by the Clinical and Laboratory Standards Institute. In addition, zone of inhibition (ZOI) assays using JCM158, JCM972, AM710, AM711, MB5746, Acinetobacter baumannii ATCC17987, Pseudomonas aeruginosa MB5919, and Staphylococcus aureus Col were performed to provide a visual display of the relative susceptibility of the strains to the peptides. Briefly, ZOI studies were performed by first growing the bacteria in CAMHB to late exponential phase at 37 °C. Molten CAMHA (CAMHB containing 1.2% agar) was equilibrated to 48 °C in a water bath for 60 min. Cells were then mixed with 30 mL of the molten CAMHA at a 1:1000 dilution and immediately poured onto an Omni-tray plate (NUNC cat# 242811). The agar plate was kept at room temperature for 20 min to solidify and further dried in a biosafety cabinet for ~20 min. Each peptide was dissolved in DMSO, and 2–5 µL aliquots were dispensed onto the top of the plate in a two-fold dilution series in which the peptides were diluted in DMSO. After the liquid was absorbed, plates were incubated at 37 °C for 18 h, and images were acquired using a Hi-Res imaging system.

[5] = system: E. coli WT (JCM158, MC4100 ara^r); type: cell-based, Escherichia coli
Experimental: as §1

E. coli BamA β-barrel = biological target: T1, E. coli BamA β-barrel (Escherichia coli, UniProt P0A940); experiment: SPR binding to E. coli BamA β-barrel; conditions: for KD: SPR, N-terminally biotinylated E. coli BamA β-barrel, single cycle kinetics, average of 2, 3, or 4 replicates ± SD; for kon: pH 7.5, read-out: ka
T1 construct: residues 421–810 from strain MG1655; made in house
From the text: For SPR, E. coli K-12 BamA (EcBamA; residues 421–810 from strain MG1655), A. baumannii BamA (AbBamA; residues 425–841 from strain ATCC19606) and P. aeruginosa BamA (PaBamA; residues 420–797 from strain PAO1) were synthesized and cloned into pET23b (Millipore Sigma) with a N-terminal Avitag for biotin conjugation. For mRNA display screening, an additional E. coli BamA (421–810) construct (EcBamA′) was designed with an N-terminal His tag, a TEV protease cleavage site, and three point mutations (C690S/C700S/S752C) to allow for site specific biotinylation of residue 752.
For peptide binding assays a Cytiva Series S CAP sensor chip was loaded onto a Biacore T200, and the chip surface was prepared according to the manufacturer’s recommendations. The running buffer was 10 mM HEPES pH 7.5, 150 mM NaCl, 0.1% LDAO. Briefly, the CAP reagent (Cytiva) was diluted 1:10 in HBS-EP buffer (0.01 M HEPES pH 7.4, 0.15 M NaCl, 3 mM EDTA, 0.005% v/v Surfactant P20) and flowed across the chip surface for 300 sec. Biotinylated EcBamA, PaBamA, or AbBamA was then immobilized on the surface by flowing the protein over the chip for 200 sec. Cyclic peptides were injected at concentrations of 12.3, 37, 111, 333 and 1000 nM in single-cycle kinetic mode for 120 sec followed by a 120 sec dissociation period, and after the highest concentration of peptide was injected the dissociation period was 1200 sec. The chip surface was regenerated after each peptide was tested by flowing regeneration solution (8 M guanidine HCl, 1 M NaOH) over the chip surface.

[6] = system: wild-type EspP assembly in AD202; experiment: Pulse-chase assembly of wild-type EspP in AD202; type: cell-based, Escherichia coli; conditions: 0.8 M sorbitol 2 min after start of chase, 28 °C
Experimental: To analyze the assembly of OMPs in living cells, overnight cultures of HDB164 (MC4100 ara^R bamA101 ompT::spc) transformed with pJH110 (Ptrc-espPΔ5)[65] or AD202 transformed with pRSL5 (Ptrc-espP)[77] or pJH224 [Ptrc-espP (G1123R)][67] were grown in M9 supplemented with 100 μg/mL ampicillin (M9/ampicillin) at 37 °C. The overnight cultures were washed in M9 and added to 50 ml fresh M9/ampicillin at OD550 = 0.02. When the cultures reached OD550 = 0.2, IPTG (10 μM) was added and the cells were incubated for another 30 min at 37 °C before being subjected to pulse-chase labeling as previously described[66]. At each timepoint 1 ml aliquots were removed and proteins were precipitated by adding 10% (v/v) TCA. […] As a control, an equal amount of DMSO was added. […] Radioactive proteins were visualized on a Fuji FLA 9000 imager using phoshophorimaging settings, and data was quantitated using Fuji MultiGauge v.
For experiments that involved EspP or EspP derivatives, the accumulated β-barrel was defined as the normalized β-barrel signal, where the normalization factor was (preproEspPsignal + proEspPsignal + β-domainsignal) at the 0 min timepoint for each condition and each experiment. For some experiments that involved EspP or EspP derivatives, the percent cleavage at each timepoint was also measured and was defined as [β-barrel signal /(proEspPsignal + β-barrelsignal)] x 100. […]

Row | SMILES | effect on EspP(G1123R) assembly when added after the mutant binds to BAM [3] | MIC E. coli BamA101 [4] [µM] | KD (E. coli BamA β-barrel) | MIC E. coli WT ([5]; JCM158, 18 h) [µM] | kon (E. coli BamA β-barrel) [M⁻¹ s⁻¹] | also measured
1 | NC(N)=NC(=O)CC(Nc1nc(N=C(N)N)nc(NC2CCC(NC(=O)Cn3nnc(-c4ccc(F)cc4)n3)CC2)n1)C1CC1 (centres unmarked) [MRL-494] | – | – | – | – | – | effect on EspP(G1123R) assembly when added after the protein binds to BAM [1]: inhibit the assembly
2 | O=C(O)CN(CCN(CC(=O)O)CC(=O)O)CC(=O)O [EDTA] | accelerate | – | – | – | – | release of LPS into the culture medium [2]: releasing LPS into the culture medium; effect on EspP(G1123R) assembly, EDTA added prior to synthesis ([3]; 2.5 mM EDTA added 1 min or 5 min before the start of the chase): accelerates
3 | CC(C)C[C@@H]1NC(=O)[C@H](Cc2ccccc2)NC(=O)CSC[C@@H](C(=O)NCC(N)=O)NC(=O)[C@H](CC(=O)O)NC(=O)[C@H](Cc2ccccc2)N(C)C(=O)CNC(=O)[C@H](CCCNC(=N)N)NC(=O)[C@H](C(C)C)NC(=O)[C@@H]2CCCN2C(=O)[C@H](CCCNC(=N)N)NC(=O)[C@H](Cc2c[nH]cn2)NC(=O)[C@H](Cc2ccc(O)cc2)NC(=O)[C@H](Cc2ccccc2)N(C)C(=O)[C@H](Cc2c[nH]c3ccccc23)NC1=O [CP1, F.L.W.MePhe.Y.H.R.P.V.R.G.MePhe.D.C.G] ({CH2CO}-FLW[NMeF]YHRPVRG[NMeF]DCG-NH2; thioether N-14) | – | 12.5 (≈ 24.6 µg/mL) | low-nanomolar range | – | – | MIC E. coli WT ([5]; in solution, CAMHB broth microdilution): > 50 µM
4 | OC[C@@H](O)[C@@H](O)[C@H](O)[C@@H](O)CO [sorbitol] | accelerate | – | – | – | – | effect on assembly of wild-type EspP, sorbitol [6]: slightly delay
5 | CC(C)[C@@H]1NC(=O)[C@H](CO)NC(=O)[C@H](CCCNC(=N)N)NC(=O)[C@H](CO)NC(=O)[C@@H]2CCCN2C(=O)[C@H](Cc2c[nH]c3ccccc23)NC(=O)[C@@H]2Cc3ccccc3CN2C(=O)[C@H](Cc2c[nH]c3ccccc23)NC(=O)[C@H](CCCNC(=N)N)NC(=O)CNC(=O)[C@H](CO)NC(=O)[C@H](Cc2ccccc2)NC(=O)CSC[C@@H](C(=O)NCC(N)=O)NC(=O)CNC1=O [CP2, F.S.G.R.W.Tic.W.P.S.R.S.V.G.C.G] ({CH2CO}-FSGRW[Tic]WPSRSVGCG-NH2; thioether N-14) | – | 6.3 (≈ 11.2 µg/mL) | low-nanomolar range | > 50 | 430000 ± 2.9e+10 | –
6 | CC(C)C[C@@H]1NC(=O)CN(CCc2ccccc2)C(=O)[C@H](Cc2ccc(O)cc2)NC(=O)[C@H](CCCNC(=N)N)NC(=O)[C@H](CCCNC(=N)N)NC(=O)[C@H](Cc2ccccc2)NC(=O)CSC[C@@H](C(=O)NCC(N)=O)NC(=O)[C@H](Cc2ccc(O)cc2)NC(=O)[C@@H]2Cc3ccccc3CN2C(=O)[C@H](C(C)C)NC(=O)[C@H](Cc2c[nH]c3ccccc23)NC(=O)[C@H](Cc2ccc(O)cc2)NC(=O)[C@H](CC(N)=O)NC(=O)[C@H](CC(=O)O)NC1=O [CP3, F.R.R.Y.PeGly.L.D.N.Y.W.V.Tic.Y.C.G] ({CH2CO}-FRRY[Gly(NCH2CH2Ph)]LDNYWV[Tic]YCG-NH2; thioether N-14) | – | 6.3 (≈ 13.3 µg/mL) | low-nanomolar range | > 50 | 160000 ± 3e+09 | –
